Publication PMC10532523, “Rifamycin-Related Polyketides from a Marine-Derived Bacterium Salinispora arenicola and Their Cytotoxic Activity” (Marine Drugs, 2023)

Assays:
Type in all cases: cell-based
[1] = tested on: ACHN; assay: Cytotoxicity, SRB assay, ACHN (renal); details: Homo sapiens; ACHN (renal) cells; read-out: Growth inhibition GI50
Description: (§1) The cytotoxic activities of 1 and 6–8 against adherent cells and suspension cells were conducted by SRB (sulforhodamine B) assay and CellTiter-Glo assay, respectively, as described earlier. The compounds were dissolved and serially diluted in dimethyl sulfoxide. GraphPad Prism 8 (GraphPad Software Inc., San Diego, CA, USA) was used to determine GI50 values. Cancer and normal cell lines were purchased from the Japanese Cancer Research Resources Bank (JCRB) (NUGC-3, JCRB Cell Bank/Cat. # JCRB0822), the DSMZ-German Collection of Microorganisms and Cell Cultures (RPMI-8402, DSMZ/Cat # ACC 290; WSU-DLCL2, DSMZ/Cat # ACC 575), and the American Type Culture Collection (ATCC) (PC-3, ATCC/Cat. # CRL-1435; MDA-MB-231, ATCC/Cat. # HTB-26; ACHN, ATCC/Cat. # CRL-1611; NCI-H23, ATCC/Cat. # CRL-5800; HCT-15, ATCC/Cat. # CCL-225; HL-60, ATCC/Cat. # CCL-240; Raji, ATCC/Cat # CCL-86; K562, ATCC/Cat # CCL-243; NALM6, ATCC/Cat # CRL-3273; U266, ATCC/Cat # TIB-196); RPMI-1788, ATCC/Cat # TIB-156). Cells were cultured in Dulbecco’s Modified Eagles medium (ACHN, MDA-MB-231), RPMI-1640 medium (HCT-15, PC-3, NUGC-3, NCI-H23, Raji, NALM6, U266, WSU-DLCL2, RPMI-1788) or Improved Minimum Essential Medium (K562, HL-60), supplemented with fetal bovine serum and penicillin-streptomycin.

[2] = tested on: MDA-MB-231; assay: Cytotoxicity, SRB assay, MDA-MB-231 (breast); details: Homo sapiens; MDA-MB-231 (breast) cells; read-out: Growth inhibition GI50
Description: as §1

[3] = tested on: HCT-15; assay: Cytotoxicity, SRB assay, HCT-15 (colon); details: Homo sapiens; HCT-15 (colon) cells; read-out: Growth inhibition GI50
Description: as §1

[4] = tested on: PC-3; assay: Cytotoxicity, SRB assay, PC-3 (prostate); details: Homo sapiens; PC-3 (prostate) cells; read-out: Growth inhibition GI50
Description: as §1

[5] = tested on: NUGC-3; assay: Cytotoxicity, SRB assay, NUGC-3 (stomach); details: Homo sapiens; NUGC-3 (stomach) cells; read-out: Growth inhibition GI50
Description: as §1

[6] = tested on: NCI-H23; assay: Cytotoxicity, SRB assay, NCI-H23 (lung); details: Homo sapiens; NCI-H23 (lung) cells; read-out: Growth inhibition GI50
Description: as §1

[7] = tested on: HL-60; assay: Cytotoxicity, CellTiter-Glo assay, HL-60 (AML); details: Homo sapiens; HL-60 (acute myelogenous leukemia) cells; read-out: Growth inhibition GI50
Description: as §1

[8] = tested on: Raji; assay: Cytotoxicity, CellTiter-Glo assay, Raji (Burkitt's lymphoma); details: Homo sapiens; Raji (Burkitt's lymphoma) cells; read-out: Growth inhibition GI50
Description: as §1

[9] = tested on: K562; assay: Cytotoxicity, CellTiter-Glo assay, K562 (CML); details: Homo sapiens; K562 (chronic myelogenous leukemia) cells; read-out: Growth inhibition GI50
Description: as §1

[10] = tested on: RPMI-8402; assay: Cytotoxicity, CellTiter-Glo assay, RPMI-8402 (T-ALL); details: Homo sapiens; RPMI-8402 (T cell acute lymphocytic leukemia) cells; read-out: Growth inhibition GI50
Description: as §1

[11] = tested on: NALM6; assay: Cytotoxicity, CellTiter-Glo assay, NALM6 (B-ALL); details: Homo sapiens, NALM-6; NALM6 (B cell acute lymphocytic leukemia) cells; read-out: Growth inhibition GI50
Description: as §1

[12] = tested on: U266; assay: Cytotoxicity, CellTiter-Glo assay, U266 (multiple myeloma); details: Homo sapiens, U-266; U266 (multiple myeloma) cells; read-out: Growth inhibition GI50
Description: as §1

[13] = tested on: WSU-DLCL2; assay: Cytotoxicity, CellTiter-Glo assay, WSU-DLCL2 (DLBCL); details: Homo sapiens, WSUDLCL2; WSU-DLCL2 (diffuse large B cell lymphoma) cells; read-out: Growth inhibition GI50
Description: as §1

[14] = tested on: RPMI-1788; assay: Cytotoxicity, CellTiter-Glo assay, normal RPMI-1788 (B lymphocytes); details: RPMI-1788 (normal B lymphocytes) cell line; read-out: Growth inhibition GI50
Description: as §1

[15] = tested on: all the tested cell lines; assay: Cytotoxicity against the whole panel (one normal, six solid, seven blood cancer cell lines); details: span over one normal, six solid and seven blood cancer cell lines; read-out: GI50 across all the tested cell lines
Description: as §1

[16] = tested on: solid cancer cells; assay: Cytotoxicity against solid cancer cells (SRB assay); details: span over solid cancer cell lines
Description: as §1

SMILES	GI50 [1]	GI50 [2]	GI50 [3]	GI50 [4]	GI50 [5]	GI50 [6]	GI50 [7]	GI50 [8]	GI50 [9]	GI50 [10]	GI50 [11]	GI50 [12]	GI50 [13]	GI50 [14]	GI50 [15]	GI50 [16]
COc1cccc2c1C(=O)c1c(O)c3c(c(O)c1C2=O)C[C@@](O)(C(=O)CO)C[C@@H]3O[C@H]1C[C@H](N)[C@H](O)[C@H](C)O1 [Adr., Adriamycin, reference compound]	0.168 µM	0.159 µM	0.137 µM	0.144 µM	0.136 µM	0.151 µM	0.021 µM	0.003 µM	0.057 µM	0.014 µM	0.002 µM	34 nM	0.002 µM	0.014 µM	–	–
CC(=CC1C(=O)OC(C(C)C(O)C(C)C(O)C(C)C=CC=C(C)C(=O)NC2=CC(=O)c3cc(O)c(C)c(O)c3C2=O)C(C)C1O)C(=O)O (centres unmarked) [Compound 1, salinisporamycin C]	8.45 µM	8.79 µM	9.25 µM	8.46 µM	7.41 µM	8.05 µM	9.96 µM	5.37 µM	7.17 µM	4.75 µM	4.28 µM	2630 nM	2.36 µM	8.47 µM	2.36 to 9.96 µM	–
CC1=CC=CC(C)C(O)C(C)C(O)C(C)C(O)C(C)C(O)C=COC2(C)Oc3c(C)cc4c(O)c(cc(OC(=O)CO)c4c3C2=O)NC1=O (centres unmarked) [Compound 6, 8-deoxy-25-desacetyl-27-demethyl-rifamycin L]	> 30 µM	> 30 µM	24.2 µM	26.6 µM	29.8 µM	21.8 µM	4.79 µM	12.1 µM	9.53 µM	2.45 µM	4.76 µM	2300 nM	5.4 µM	4.93 µM	–	21.8 to 29.8 µM
CC(=O)CC1OC(C(C)C(O)C(C)C(O)C(C)C=CC=C(C)C(N)=O)C(C)C1O (centres unmarked) [Compound 7, salinifuran A]	> 30 µM	> 30 µM	> 30 µM	> 30 µM	> 30 µM	> 30 µM	> 30 µM	> 30 µM	> 30 µM	> 30 µM	26.8 µM	> 30000 nM	> 30 µM	–	–	–
C/C(=C/C=C/[C@H](C)[C@H](O)[C@@H](C)[C@@H](O)[C@@H](C)[C@@H]1O[C@@]2(C)CC[C@@H](O2)[C@H]1C)C(N)=O [Compound 8, saliniketal A]	> 30 µM	> 30 µM	> 30 µM	> 30 µM	> 30 µM	> 30 µM	> 30 µM	> 30 µM	> 30 µM	> 30 µM	> 30 µM	> 30000 nM	> 30 µM	–	> 30 µM	–
